# Test results reported in US20180078576A1, “SULPHATED XYLANS FOR TREATMENT OR PROPHYLAXIS OF RESPIRATORY DISEASES” (Paradigm Biopharmaceuticals Limited, priority 2007, published 2018).
# Assays:
# [1] = molecular target: T1, recombinant human IL-4 (rhIL-4) (Homo sapiens, UniProt P05112); experiment: BIAcore inhibition of IL-4 binding to immobilized heparin; details: BIAcore chip, titration, FIG. 3A
# T1 construct: made in house; host or cells: baculovirus expression system
# T1 sequence (P05112 25-153): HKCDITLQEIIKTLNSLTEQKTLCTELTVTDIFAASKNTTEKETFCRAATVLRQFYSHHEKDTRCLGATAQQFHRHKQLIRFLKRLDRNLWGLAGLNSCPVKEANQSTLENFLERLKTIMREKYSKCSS
# From the text: (§1) The optical phenomenon of surface plasmon resonance is used to monitor physical interactions between molecules. Passing a solution of a potential protein ligand (e.g. IL-4, IL-5 or eotaxin) over a sensor surface to which a target (e.g. heparin) is coupled monitors the real-time binding of protein ligands to the immobilized target. Detection is achieved by measuring refractive index changes very close to the sensor surface. When the refractive index is altered, the angle at which plasmon resonance occurs changes and this change directly correlates with the amount of protein interacting with the surface. A BIAcore 2000 is conveniently used. […]
# (§2) Biotinylated heparin is immobilized on the biosensor chip. […] Solutions containing potential protein ligands of interest are injected over the sensor chip surface, and the binding is measured in real time (Fernig, In: Proteoglycan protocols, Ed. R. V. Iozzo, Humana Press, Totowa, N.J., USA, 2001). Baculovirus expressed recombinant human IL-4 (rhIL-4) and baculovirus expressed recombinant human IL-5 (rhIL-5) readily bind to heparin immobilized by this method (see PCT/AU2005/000551). […] Similarly, recombinant human eotaxin (CCL11) expressed in E. coli binds readily to immobilized heparin and binding is specific as there is little eotaxin binding to sensor chips lacking heparin. […]
# [2] = molecular target: T2, recombinant human IL-5 (rhIL-5) (Homo sapiens, UniProt P05113); experiment: BIAcore inhibition of IL-5 binding to immobilized heparin; details: BIAcore chip, titration, FIG. 3B
# T2 construct: made in house; host or cells: baculovirus expression system
# T2 sequence (P05113 20-134): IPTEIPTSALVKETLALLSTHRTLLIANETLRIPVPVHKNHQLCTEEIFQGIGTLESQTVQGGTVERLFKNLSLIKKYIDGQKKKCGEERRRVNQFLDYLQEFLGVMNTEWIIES
# From the text: as §1, §2
# [3] = molecular target: T3, recombinant human eotaxin (CCL11) (Homo sapiens, UniProt P51671); experiment: BIAcore inhibition of eotaxin-1 binding to immobilized heparin; details: BIAcore chip, FIG. 3D
# T3 construct: host or cells: E. coli
# T3 sequence (P51671 24-97): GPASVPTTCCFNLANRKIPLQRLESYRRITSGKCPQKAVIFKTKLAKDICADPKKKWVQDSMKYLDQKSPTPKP
# From the text: as §1, §2
# IL-13 = IL-13 (Homo sapiens, UniProt P35225); experiment: IL-13 dependent proliferation of TF-1 cells; type: cell-based
# Chain of IL-13 (P35225 25-146): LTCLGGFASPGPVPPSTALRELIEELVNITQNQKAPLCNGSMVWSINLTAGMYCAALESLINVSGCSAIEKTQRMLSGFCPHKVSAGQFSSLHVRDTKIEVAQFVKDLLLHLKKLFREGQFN
# From the text: IL-13 is a cytokine with a key role in asthma and allergic disease (including allergic rhinitis) and it seems particularly important in […] the airway hyperreactivity seen with asthma (Wills-Karp, Immunol. Rev. 202:175-190, 2004). […] Pentosan polysulfate (PPS) and a DP5 sulfated xylan inhibited the proliferation of a human IL-13 responsive cell line. This occurs at very low doses and is not due to a toxic effect of the PPS because other, similarly sulfated polysaccharides, at the same concentrations of IL-13 and polysaccharide have no effect. These experiments utilize the TF-1 cells. TF-1 cells were originally established from a bone marrow sample from a person with severe pancytopenia. […]
# The proliferation assays are carried out in 96-well microplates suitable for such assays (Falcon). […] The cells are counted with a Coulter Z2 Particle Counter and Size Analyzer (Coulter Electronics, England) and routinely 2.5×10^4 cells are added to microplate wells that contain either no IL-13 (negative control) or various dilutions of IL-13. When the effect of PPS is to be measured, the wells also contain various concentrations of this molecule. The cells proliferate for 48 hours at 37° C. in a humidified atmosphere, after which the number of cells present is quantified by staining with the AQUEOUS ONE dye (30 μl/well) for 3 hours and then absorbance is read at 490 nm.
# human MIP-1α = molecular target: T4, human MIP-1α (Homo sapiens, UniProt P10147); experiment: MIP-1α induced migration of DMSO treated U937 cells (chemotaxis); type: cell-based; details: MIP-1α 40 ng/ml
# T4 sequence (P10147 24-92): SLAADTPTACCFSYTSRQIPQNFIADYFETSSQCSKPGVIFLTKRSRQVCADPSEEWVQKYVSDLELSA
# Description: DMSO treated U937 cells were used to examine the cell migration in response to MIP-1α. U937 cells are a promonocytic human cell line originally derived from the pleural effusion of a patient with histiocytic lymphoma. These cells were treated with DMSO (1.2%) for 4 days before being used in chemotaxis experiments. The chemotaxis assays were performed in 96-well Costar chemotaxis plates and human MIP-1α (+/−inhibitor) was added to the bottom chamber and the DMSO treated U937 cells in RPMI/HEPES were added to the top chamber and the plate was incubated at 37° C. for 3 hour to allow cells to move from the top chamber into the bottom. The number of cells migrating into the bottom chamber was quantified by labeling with AQUEOUS ONE (30 μl/well) for 1 hour before absorbance at 490 nm is read. MIP-1α was used at a final concentration of 40 ng/ml and the inhibitors were the sulfated xylan pentasaccharide (10 and 50 μg/ml) and PPS (10 and 50 μg/ml). It is clear from these experiments that both PPS and the sulfated xylan pentasaccharide inhibited MIP-1α stimulated cell movement.
substance,measurement,setting,value
Pentosan polysulfate [PPS],IC50,[1],25 to 80 nM
same,IC50,[2],4 to 10 nM
same,IC50,[3],~15 nM
same,Inhibition of IL-13 dependent proliferation of TF-1 cells (in words),"IL-13; FIG. 16, IL-13 2.5 ng/ml",markedly inhibit
same,IL-13 mediated cell proliferation blocked,"IL-13; PPS concentrations of 5-10 μg/ml, TF-1 cells, 48 hours",75-80%
same,Inhibition of MIP-1α stimulated cell movement,human MIP-1α; 10 μg/ml,48%
same,Inhibition of MIP-1α stimulated cell movement,human MIP-1α; 50 μg/ml,69%
